Experimental data from PubChem BioAssay AID1963958 (Molecular Pharmacology Branch, DTP, NCI, 2024).
pIC50: −log10 of the molar value.

Test system: MDA-MB-231 multicell spheroids, viability
Assay: Anticancer human tumor MDA-MB-231 cell line growth inhibition [PI3K];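 also: spheroids exposed to agents for seven days before reading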;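 as to viability, T/C: percent of vehicle control luminescence with DMSO treated spheroids as 100%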
Settings: for pIC50: curve of first compound; for viability, T/C: stronger effect = lower value
From the text: Combinatorial screen of targeted agents with the PI3K inhibitors inavolisib, alpelisib, duvelisib, and copanlisib in multi-cell type tumor spheroids
A high-throughput screen of multi-cell type tumor spheroids was designed to identify active combinations of targeted small molecules and PI3K pathway inhibitors. Complex spheroids include a stromal component modeled by human endothelial cells (HUVEC) and fibroblasts modeled by human mesenchymal stem cells (MSCs). The concentration ranges selected for each drug and investigational agent were based upon clinically achievable concentrations if the clinical Cmax of the agent was known.
Compounds. The drugs and investigational agents: inavolisib (NSC800729), alpelisib (NSC765974), duvelisib (NSC772469), copanlisib (NSC816437), ipatasertib (NSC767898), afuresertib (NSC778305), talazoparib (NSC767125), sapanisertib (NSC764658), selumetinib (NSC741078), tovorafenib (DAY101, NSC766906), vemurafenib (NSC761431), ravoxertinib (NSC781343), sotorasib (NSC818433), MRTX1133 (NSC 836407), abemaciclib (NSC 768073), palbociclib (NSC758247), venetoclax (NSC 766270), SY5609 (NSC837396), enzalutamide (NSC755605), and darolutamide (NSC825331), were obtained from the National Cancer Institute (NCI) Developmental Therapeutics Program Chemical Repository. The FDA-approved anticancer drug set is available from the NCI Developmental Therapeutics Program. […] The stock solutions were prepared in dimethyl sulfoxide (DMSO, Sigma-Aldrich, St. Louis, MO, cat. D2650) at 800-fold the tested concentration and stored at -70 degrees C prior to their use. All drugs and investigational agents were tested over a range starting from a high concentration at or near the clinical Cmax and decreasing in half-log increments. If the clinical Cmax for an agent had not been determined, the highest concentration tested was 10 microM.
Cell Culture. All cells were maintained in an incubator at 37 degrees C and 5% CO2 with 95% humidity. The PDC lines were cultured according to standard operating procedures established by the NCI PDMR (https://pdmr.cancer.gov/sops/default.htm). All PDCs were thawed and cultured in Matrigel-coated flasks prepared with a working solution of 1X Ham's F-12 nutrient mix, without supplementation (Invitrogen, Waltham, MA, cat. 11765054), 100 U/mL penicillin-streptomycin (Invitrogen, cat. 15140122), and 2.5% Matrigel (Corning Inc., Corning, NY, cat. 354248) for the first three passages. The 354836-022-R-J1-PDC, 475296-252-R-J1-PDC, and 997726-040-R-J2-PDC lines were cultured in 6A media, which includes advanced DMEM/F-12 (Thermo Fisher Scientific, cat. 12634028), 10 mM HEPES (Thermo Fisher Scientific, cat. 15630080), 1X GlutaMAX supplement (Thermo Fisher Scientific, cat. 35050061), 0.1 mg/mL primocin (InvivoGen, San Diego, CA, cat. ant-pm-2), 10% defined fetal bovine serum, heat inactivated (HyClone Laboratories Inc., Logan, UT, cat. SH30070.03HI), 50% L-WRN conditioned media (ATCC, cat. CRL-3276), 1.25 mM N-Acetyl-L-cysteine (Sigma-Aldrich, cat. A9165), 10 mM nicotinamide (Sigma-Aldrich, cat. N0636), 1X B-27 supplement (Thermo Fisher Scientific, cat. 17504044), 1X N-2 supplement (Thermo Fisher Scientific, cat. 17502048), and 10 microM Y-27632 dihydrochloride (Tocris Bioscience, Bristol, United Kingdom, cat. 1254). The 624824-186-R-J2-PDC line was cultured in 6C/Colon 1B media, which includes all 6A media components plus 50 ng/mL human EGF recombinant protein (Thermo Fisher Scientific, cat. PHG0311). […]

[1] = second compound 0.00316 µM, first compound 0.000316 µM
[2] = second compound 0.00316 µM, first compound 0.001 µM
[3] = second compound 0.00316 µM, first compound 0.00316 µM
[4] = second compound 0.00316 µM, first compound 0.01 µM
[5] = second compound 0.00316 µM, first compound 0.0316 µM
[6] = second compound 0.00316 µM, first compound 0.1 µM
[7] = second compound 0.01 µM, first compound 0.000316 µM
[8] = second compound 0.01 µM, first compound 0.001 µM
[9] = second compound 0.01 µM, first compound 0.00316 µM
[10] = second compound 0.01 µM, first compound 0.01 µM
[11] = second compound 0.01 µM, first compound 0.0316 µM
[12] = second compound 0.01 µM, first compound 0.1 µM
[13] = second compound 0.0316 µM, first compound 0.000316 µM
[14] = second compound 0.0316 µM, first compound 0.001 µM
[15] = second compound 0.0316 µM, first compound 0.00316 µM
[16] = second compound 0.0316 µM, first compound 0.01 µM
[17] = second compound 0.0316 µM, first compound 0.0316 µM
[18] = second compound 0.0316 µM, first compound 0.1 µM
[19] = second compound 0.1 µM, first compound 0.000316 µM
[20] = second compound 0.1 µM, first compound 0.001 µM
[21] = second compound 0.1 µM, first compound 0.00316 µM
[22] = second compound 0.1 µM, first compound 0.01 µM
[23] = second compound 0.1 µM, first compound 0.0316 µM
[24] = second compound 0.1 µM, first compound 0.1 µM
[25] = second compound 0.316 µM, first compound 0.000316 µM
[26] = second compound 0.316 µM, first compound 0.001 µM
[27] = second compound 0.316 µM, first compound 0.00316 µM
[28] = second compound 0.316 µM, first compound 0.01 µM
[29] = second compound 0.316 µM, first compound 0.0316 µM
[30] = second compound 0.316 µM, first compound 0.1 µM
[31] = second compound 1 µM, first compound 0.000316 µM
[32] = second compound 1 µM, first compound 0.001 µM
[33] = second compound 1 µM, first compound 0.00316 µM
[34] = second compound 1 µM, first compound 0.01 µM
[35] = second compound 1 µM, first compound 0.0316 µM
[36] = second compound 1 µM, first compound 0.1 µM

With `CC(=O)c1c(C)c2cnc(Nc3ccc(N4CCNCC4)cn3)nc2n(C2CCCC2)c1=O` + CC(Nc1ccc2c(c1)OCCn1cc(N3C(=O)OCC3C(F)F)nc1-2)C(N)=O the pIC50 (second compound 0.00316 µM) was 7.13, the pIC50 (second compound 0.01 µM) was 7.22 and the pIC50 (second compound 0.0316 µM) was 7.46. The pIC50 (second compound 0.1 µM) was 7.81, the pIC50 (second compound 0.316 µM) was 8.00 and the pIC50 (second compound 1 µM) was 8.34. It also gave a viability, T/C [1] of 108%, a viability, T/C [2] of 91.5% and a viability, T/C [3] of 98.1%. The viability, T/C [4] was 90.2%, the viability, T/C [5] was 67.4% and the viability, T/C [6] was 43.5%. It also gave a viability, T/C [7] of 94.1%, a viability, T/C [8] of 92.6% and a viability, T/C [9] of 95.7%. For the same molecule, the viability, T/C [10] was 72.1%, the viability, T/C [11] was 67% and the viability, T/C [12] was 38.7%. It also gave a viability, T/C [13] of 80.1%, a viability, T/C [14] of 75.7% and a viability, T/C [15] of 79.9%. For the same molecule, the viability, T/C [16] was 69%, the viability, T/C [17] was 51.8% and the viability, T/C [18] was 31.6%. It also gave a viability, T/C [19] of 71.3%, a viability, T/C [20] of 65.7% and a viability, T/C [21] of 65.1%. For the same molecule, the viability, T/C [22] was 55.2%, the viability, T/C [23] was 41.3% and the viability, T/C [24] was 27.9%. For the same molecule, the viability, T/C [25] was 65.8%, the viability, T/C [26] was 64% and the viability, T/C [27] was 61.3%. For the same molecule, the viability, T/C [28] was 48.2%, the viability, T/C [29] was 37.9% and the viability, T/C [30] was 24.3%. The viability, T/C [31] was 60.9%, the viability, T/C [32] was 55.1% and the viability, T/C [33] was 51.9%. It also gave a viability, T/C [34] of 46.2%, a viability, T/C [35] of 35.9% and a viability, T/C [36] of 23.4%.

Work on `CC(C)n1nc(-c2ccc3oc(N)nc3c2)c2c(N)ncnc21` + CC(Nc1ccc2c(c1)OCCn1cc(N3C(=O)OCC3C(F)F)nc1-2)C(N)=O yielded a pIC50 (second compound 0.00316 µM) of 7.46, a pIC50 (second compound 0.01 µM) of 7.56 and a pIC50 (second compound 0.0316 µM) of 7.89. It also gave a pIC50 (second compound 0.1 µM) of 8.29, a pIC50 (second compound 0.316 µM) of 8.46 and a pIC50 (second compound 1 µM) of 8.67. The viability, T/C [1] was 101%, the viability, T/C [2] was 92.6% and the viability, T/C [3] was 94.5%. For the same molecule, the viability, T/C [4] was 77.4%, the viability, T/C [5] was 51.8% and the viability, T/C [6] was 31.5%. The viability, T/C [7] was 89.1%, the viability, T/C [8] was 93.7% and the viability, T/C [9] was 89%. For the same molecule, the viability, T/C [10] was 66%, the viability, T/C [11] was 50% and the viability, T/C [12] was 30.5%. The viability, T/C [13] was 81%, the viability, T/C [14] was 74.6% and the viability, T/C [15] was 65.4%. It also gave a viability, T/C [16] of 54.2%, a viability, T/C [17] of 37.7% and a viability, T/C [18] of 25.5%. It also gave a viability, T/C [19] of 68.6%, a viability, T/C [20] of 63% and a viability, T/C [21] of 55.2%. It also gave a viability, T/C [22] of 42.7%, a viability, T/C [23] of 33.2% and a viability, T/C [24] of 21.3%. It also gave a viability, T/C [25] of 65.3%, a viability, T/C [26] of 60.2% and a viability, T/C [27] of 49.5%. The viability, T/C [28] was 41.7%, the viability, T/C [29] was 28.5% and the viability, T/C [30] was 19.9%. For the same molecule, the viability, T/C [31] was 58.8%, the viability, T/C [32] was 54.7% and the viability, T/C [33] was 48.3%. The viability, T/C [34] was 36.6%, the viability, T/C [35] was 27.9% and the viability, T/C [36] was 17.3%.

`CCCS(=O)(=O)Nc1ccc(F)c(C(=O)c2c[nH]c3ncc(-c4ccc(Cl)cc4)cc23)c1F` + CC(Nc1ccc2c(c1)OCCn1cc(N3C(=O)OCC3C(F)F)nc1-2)C(N)=O gave a pIC50 (second compound 0.00316 µM) of 5.35, a pIC50 (second compound 0.01 µM) of 5.44 and a pIC50 (second compound 0.0316 µM) of 5.61. The pIC50 (second compound 0.1 µM) was 5.73, the pIC50 (second compound 0.316 µM) was 5.91 and the pIC50 (second compound 1 µM) was 5.96. The viability, T/C [5] was 98.5%, the viability, T/C [6] was 94.9% and the viability, T/C (second compound 0.00316 µM, first compound 0.316 µM) was 100%. The viability, T/C (second compound 0.00316 µM, first compound 1 µM) was 86.9%, the viability, T/C (second compound 0.00316 µM, first compound 3.16 µM) was 59.2% and the viability, T/C (second compound 0.00316 µM, first compound 10 µM) was 29.9%. It also gave a viability, T/C [11] of 98.3%, a viability, T/C [12] of 102% and a viability, T/C (second compound 0.01 µM, first compound 0.316 µM) of 93.3%. The viability, T/C (second compound 0.01 µM, first compound 1 µM) was 80.3%, the viability, T/C (second compound 0.01 µM, first compound 3.16 µM) was 52.8% and the viability, T/C (second compound 0.01 µM, first compound 10 µM) was 29.5%. It also gave a viability, T/C [17] of 80.5%, a viability, T/C [18] of 81.6% and a viability, T/C (second compound 0.0316 µM, first compound 0.316 µM) of 79.9%. It also gave a viability, T/C (second compound 0.0316 µM, first compound 1 µM) of 66.3%, a viability, T/C (second compound 0.0316 µM, first compound 3.16 µM) of 45.5% and a viability, T/C (second compound 0.0316 µM, first compound 10 µM) of 26.6%. It also gave a viability, T/C [23] of 80.8%, a viability, T/C [24] of 71.4% and a viability, T/C (second compound 0.1 µM, first compound 0.316 µM) of 68.6%. It also gave a viability, T/C (second compound 0.1 µM, first compound 1 µM) of 61.4%, a viability, T/C (second compound 0.1 µM, first compound 3.16 µM) of 41% and a viability, T/C (second compound 0.1 µM, first compound 10 µM) of 23.9%. It also gave a viability, T/C [29] of 72%, a viability, T/C [30] of 68.4% and a viability, T/C (second compound 0.316 µM, first compound 0.316 µM) of 61.7%. The viability, T/C (second compound 0.316 µM, first compound 1 µM) was 54.7%, the viability, T/C (second compound 0.316 µM, first compound 3.16 µM) was 36.7% and the viability, T/C (second compound 0.316 µM, first compound 10 µM) was 21.7%. The viability, T/C [35] was 65.4%, the viability, T/C [36] was 63.4% and the viability, T/C (second compound 1 µM, first compound 0.316 µM) was 59.8%. It also gave a viability, T/C (second compound 1 µM, first compound 1 µM) of 51%, a viability, T/C (second compound 1 µM, first compound 3.16 µM) of 36.9% and a viability, T/C (second compound 1 µM, first compound 10 µM) of 21.4%.
